The target of assay [1] is T1, Mitogen-activated protein kinase kinase kinase kinase 2 (Homo sapiens) (UniProt Q12851).
T1 sequence (whole entry): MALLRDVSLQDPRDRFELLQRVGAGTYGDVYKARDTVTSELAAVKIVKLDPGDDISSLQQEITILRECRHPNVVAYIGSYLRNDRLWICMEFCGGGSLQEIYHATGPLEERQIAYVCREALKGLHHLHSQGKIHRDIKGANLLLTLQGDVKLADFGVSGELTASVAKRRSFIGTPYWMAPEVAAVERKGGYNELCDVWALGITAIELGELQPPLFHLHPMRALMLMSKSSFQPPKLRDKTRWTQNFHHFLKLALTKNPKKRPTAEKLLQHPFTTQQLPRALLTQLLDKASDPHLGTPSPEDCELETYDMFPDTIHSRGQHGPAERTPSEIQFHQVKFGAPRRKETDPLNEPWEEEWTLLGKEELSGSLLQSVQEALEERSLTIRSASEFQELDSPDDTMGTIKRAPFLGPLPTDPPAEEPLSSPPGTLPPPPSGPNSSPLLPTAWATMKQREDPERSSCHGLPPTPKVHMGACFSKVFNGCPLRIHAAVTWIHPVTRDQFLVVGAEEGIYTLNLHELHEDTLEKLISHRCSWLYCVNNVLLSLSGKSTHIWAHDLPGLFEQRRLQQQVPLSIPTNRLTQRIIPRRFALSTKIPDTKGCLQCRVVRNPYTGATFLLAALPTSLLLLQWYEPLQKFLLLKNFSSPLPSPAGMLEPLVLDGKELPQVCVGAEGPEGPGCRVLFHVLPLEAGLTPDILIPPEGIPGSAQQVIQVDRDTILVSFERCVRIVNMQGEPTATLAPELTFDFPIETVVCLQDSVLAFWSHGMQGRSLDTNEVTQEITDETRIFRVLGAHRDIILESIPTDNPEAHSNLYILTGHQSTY
In words: Selectivity interaction (KinomeScan (DiscoverX)) EUB0000595a MAP4K2. The settings on record: at 10 µM.

For assay [2], the target named is T2, Serine/threonine-protein kinase Sgk2 (Homo sapiens) (UniProt Q9HBY8).
T2 sequence (whole entry): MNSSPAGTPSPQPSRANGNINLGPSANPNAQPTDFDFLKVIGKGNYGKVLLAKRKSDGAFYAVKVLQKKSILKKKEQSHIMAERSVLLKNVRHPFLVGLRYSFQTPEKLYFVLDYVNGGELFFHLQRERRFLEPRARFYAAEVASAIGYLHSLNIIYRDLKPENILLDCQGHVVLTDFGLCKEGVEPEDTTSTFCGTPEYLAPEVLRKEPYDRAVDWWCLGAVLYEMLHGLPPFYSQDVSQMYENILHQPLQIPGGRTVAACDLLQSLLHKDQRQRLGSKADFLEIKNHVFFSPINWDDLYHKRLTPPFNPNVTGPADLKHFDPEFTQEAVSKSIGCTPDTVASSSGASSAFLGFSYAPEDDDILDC
The assay can be described thus: Selectivity interaction (Kinase panel (Invitrogen)) EUB0000639a SGK2. The settings on record: at 200 nM.

Assay [3] deals with T3, Serine/threonine-protein kinase PLK4 (Homo sapiens) (UniProt O00444).
T3 sequence (whole entry): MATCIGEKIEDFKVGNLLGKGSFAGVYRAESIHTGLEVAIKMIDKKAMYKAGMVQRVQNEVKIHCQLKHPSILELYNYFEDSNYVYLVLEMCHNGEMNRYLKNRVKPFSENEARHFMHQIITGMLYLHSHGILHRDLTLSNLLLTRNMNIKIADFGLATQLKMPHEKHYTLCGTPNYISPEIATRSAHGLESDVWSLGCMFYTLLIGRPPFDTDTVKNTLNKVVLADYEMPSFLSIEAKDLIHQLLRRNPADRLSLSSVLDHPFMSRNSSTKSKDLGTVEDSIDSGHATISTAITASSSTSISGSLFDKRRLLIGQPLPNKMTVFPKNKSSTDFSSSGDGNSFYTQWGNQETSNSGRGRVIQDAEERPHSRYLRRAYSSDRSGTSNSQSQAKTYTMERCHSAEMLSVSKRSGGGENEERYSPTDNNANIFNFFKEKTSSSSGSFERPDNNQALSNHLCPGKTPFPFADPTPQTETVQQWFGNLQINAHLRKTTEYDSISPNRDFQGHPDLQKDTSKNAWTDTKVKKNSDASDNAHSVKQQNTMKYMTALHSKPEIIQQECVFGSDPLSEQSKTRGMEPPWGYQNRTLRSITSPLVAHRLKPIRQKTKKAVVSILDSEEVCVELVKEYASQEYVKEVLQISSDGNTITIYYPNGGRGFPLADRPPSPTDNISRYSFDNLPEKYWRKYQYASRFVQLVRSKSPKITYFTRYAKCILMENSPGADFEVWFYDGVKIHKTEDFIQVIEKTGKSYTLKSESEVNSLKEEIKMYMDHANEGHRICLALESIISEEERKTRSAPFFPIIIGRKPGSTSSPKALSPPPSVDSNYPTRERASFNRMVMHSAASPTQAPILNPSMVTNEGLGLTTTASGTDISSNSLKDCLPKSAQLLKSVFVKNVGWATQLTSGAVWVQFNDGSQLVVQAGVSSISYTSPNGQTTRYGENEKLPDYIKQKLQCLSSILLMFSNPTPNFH
In words: Selectivity interaction (Kinase panel (DSF assay)) EUB0001559a PLK4. For orientation: Differential scanning fluorimetry follows unfolding on heating by fluorescence.

Assay [4] deals with T4, Hormonally up-regulated neu tumor-associated kinase (Homo sapiens) (UniProt P57058).
T4 sequence (whole entry): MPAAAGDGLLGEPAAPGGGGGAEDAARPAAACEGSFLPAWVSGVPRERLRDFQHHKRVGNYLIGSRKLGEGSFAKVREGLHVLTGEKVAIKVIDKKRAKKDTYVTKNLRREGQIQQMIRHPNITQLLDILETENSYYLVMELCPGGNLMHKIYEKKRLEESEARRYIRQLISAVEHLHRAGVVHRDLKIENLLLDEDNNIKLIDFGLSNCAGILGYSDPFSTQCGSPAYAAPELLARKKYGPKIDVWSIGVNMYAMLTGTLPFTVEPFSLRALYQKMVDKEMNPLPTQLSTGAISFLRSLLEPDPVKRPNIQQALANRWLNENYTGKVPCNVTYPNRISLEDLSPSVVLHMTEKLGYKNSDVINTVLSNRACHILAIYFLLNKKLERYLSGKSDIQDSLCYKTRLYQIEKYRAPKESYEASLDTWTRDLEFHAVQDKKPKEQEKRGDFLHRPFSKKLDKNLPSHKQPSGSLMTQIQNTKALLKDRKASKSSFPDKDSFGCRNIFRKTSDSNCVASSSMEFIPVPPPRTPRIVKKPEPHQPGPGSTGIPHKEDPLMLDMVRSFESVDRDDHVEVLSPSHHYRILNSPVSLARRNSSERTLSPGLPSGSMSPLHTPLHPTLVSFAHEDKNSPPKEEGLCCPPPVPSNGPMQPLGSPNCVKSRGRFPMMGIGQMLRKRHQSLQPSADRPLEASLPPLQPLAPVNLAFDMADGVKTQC
In words: Selectivity interaction (KinomeScan (DiscoverX)) EUB0000092b HUNK. The settings on record: at 10 µM.

For `COCC(=O)NC/C=C/c1ccc2ncnc(Nc3ccc(Oc4ccc(C)nc4)c(C)c3)c2c1` [CP-724714], in assay [1], the % of control is 100%.

`CC[C@@H]1[C@H](F)C(=O)N[C@@H]1COc1nccc2cc(C(N)=O)c(OC)cc12` [ZIMLOVISERTIB] registered a % of inhibition in assay [2] of 5.25%.

For `CN(C(=O)c1cnn2cccnc12)c1cc2c(cc1N1CCOCC1)C(=O)N(C[C@@H](F)C(C)(C)O)C2`, the dTM in assay [3] was -0.4 K.

The compound `CCC(=O)N1CCN(c2ccc(-n3c(=O)ccc4cnc5ccc(-c6cnc7ccccc7c6)cc5c43)cc2C(F)(F)F)CC1` showed a % of control in assay [4] of 91%.
